# Key:
# Male mice = assay: Hemostatic test (bleeding time after wounding the tail vein); assay type: in vivo; conditions: for rate of shortening bleeding time (shortened rate): summary in the description; for Bleeding Time (mean±S.E.) After Administration / Shortened Time (mean±S.E.) / Shortened Rate: Table 7; for Bleeding Time (mean±S.E.) After Administration / Shortened Time (mean±S.E.): mean of five tests, dose not stated; for Shortened Rate: shortened time relative to bleeding time before administration
# Description: The present invention will be described in more detail with reference to the examples below, in which hemostatic test was performed as follows:
# Male mice weighing 15 to 20 g. were intraperitoneously given with 0.5 ml. of a Locke solution. The mice-.were holded on a mouse holder 10 minutes after the administration, where the left vein of the tail at the middle of the tail (3 to 4 cm. from the root of the tail) was wounded with a knife to bleed. A filter paper was softly touched with the incised wound at the interval of 30 seconds and observation was made if blood was transferred onto the filter paper. Time until blood was not transferred onto the filter paper was measured and was made a bleeding time for control
# Subsequently, a test compound dissolved in 0.5 ml. of a Locke solution was intraperitoneously administered to the same mice. The mice were holded onto a mouse holder 10 minutes after the administration. The right vein at the middle of the tail was wounded with a knife and a bleeding time was measured as in control described above.
# A difference in bleeding time between the control and the test compound was made a shortened time for bleed-stopping.
# platelet = assay: Platelet-increasing activity (platelet count, Fonio direct method); assay type: in vivo, mice; conditions: for increase of the number of platelet versus control: 1 mg/0.5 ml./body i.p., 10 mins. after administration, versus Ringer-Locke control
# Description: Platelet-Increasing Activity: • The compound having the formula shown in Example 1 was intraperitoneously administered to ddY female ten(10) mice as one grouping at the dose of 1 mg/0.5 ml./body in the form of a Ringer-Locke solution (1 mg. of the compound was dissolved in a Ringer-Locke solution). One eyeball was isolated 10 mins. after the administration to bleed. Blood was collected and the number of platelet was measured according to a direct method (Fonio original method), details of which are described in Dsch. Z. Schr. Chir., vol. 117, page 176 (1912).
# As a control group, a Ringer-Locke solution was intraperitoneously administered at the dose of 0.5 ml/body for comparison.
# Activity on Platelet-Increase: • The procedure similar to Example 3 was repeated except that the compound of Example 3 was used instead of the compound of Example 1.
# [1] = Toxicity / neurotoxic activity (no method described)
Structure (SMILES),rate of shortening bleeding time (shortened rate) (Male mice) [%],increase of the number of platelet versus control (platelet; ddY female mice),"Number of Platelet (platelet; Table 6, same procedure as Table 4 (1 mg/0.5 ml./body i.p., ddY female mice))",neurotoxic side effect / neurotoxic activity (in words) [1],Bleeding Time (mean±S.E.) After Administration (Male mice) [s],Shortened Time (mean±S.E.) (Male mice),Shortened Rate (Male mice) [%],"Number of Platelet (platelet; Table 4, 1 mg/0.5 ml./body i.p. in Ringer-Locke solution, ddY female mice, 10 per group, blood 10 mins. after administration)",increase of the number of platelet as compared to a control (platelet; dose not stated),"toxicity relative to that of the oxalyl derivative ([1]; compared with L-N-β-oxalyl-α, β-diaminopropionic acid)"
"N[C@H](CNC(=O)C(=O)O)C(=O)O [Compound of Example 3, D-N-β-Oxalyl- α, β -diaminopropionic acid]",35,~24%,"68.0 ± 7.35 10,000/mm^3",slighter in neurotoxic activity,,,,,,
"N[C@@H](CNC(=O)C(=O)O)C(=O)O [compound of Example 1, L-N-β-oxalyl-α,β-diaminopropionic acid]",35,about 30%,,does not exhibit neurotoxic side effect,354 ± 45,192 ± 36 s,35.16,"69.6 ± 6.31 10,000/mm^3",,
"NC[C@H](N)C(=O)O [α,β-diaminopro-pionic acid, L-α, β-diaminopropionic acid]",44,,,,306 ± 37,240±33 p<0.05 second,43.96,,about 17%,about 1/5
